Measured values reported in publication PMC10994195 (Journal of medicinal chemistry, 2024).

Legend:
FmlH = FmlH (Escherichia coli, UniProt A0A0H2V7F6); assay: ELISA of FmlH lectin domain binding with TF antigen as competitive ligand; design: species or system uropathogenic Escherichia coli (UPEC); settings: for loss of activity relative to parent compound I: FmlH ELISA IC50 ratio
[1] = In vivo pharmacokinetics in mice; settings: mice plasma PK
Mouse pharmacokinetics = assay type: in vivo, C3H/HeN mice; settings: mice, PO
[2] = rats; cited from earlier work
[3] = cited from earlier work

**Q.** With CC(=O)N[C@H]1[C@H](Oc2cccc(C(F)(F)F)c2-c2cccc(CS(C)(=O)=O)c2)O[C@H](CO)[C@H](O)[C@@H]1O [Compound 9] as the molecule, how does the “loss of activity relative to parent compound I” value (FmlH) read?
**A.** ~ 10 fold

**Q.** With CC(=O)N[C@H]1[C@H](Oc2cccc(C(F)(F)F)c2-c2cccc(C(=O)NS(C)(=O)=O)c2)O[C@H](CO)[C@H](O)[C@@H]1O [Compound 11] as the molecule, how does the “loss of activity relative to parent compound I” value (FmlH) read?
**A.** ~ 10 fold

**Q.** For CS(=O)(=O)Nc1cccc(-c2ccccc2C[C@@H]2O[C@H](CO)[C@H](O)[C@H](O)[C@H]2F)c1 [Compound 28], which “improvement of potency on replacing 2-position OH with F” value (FmlH; FmlH ELISA, relative to 27) is on record?
**A.** 2 fold

**Q.** Which IC50 (FmlH; FmlH ELISA, average of four replicates) does the source give for CS(=O)(=O)Nc1cccc(-c2ccccc2C[C@@H]2O[C@H](CO)[C@H](O)[C@H](O)[C@H]2[N+](=O)[O-])c1 [Compound 34] here?
**A.** all activity against FmlH was eliminated

**Q.** For CC(=O)N[C@H]1[C@H](Oc2cccc(C(F)(F)F)c2-c2ccc(F)cc2)O[C@H](CO)[C@H](O)[C@@H]1O [Compound 69], which “AUC relative to 67” value [1] is on record?
**A.** ~4 fold

**Q.** And the “urine concentration relative to FmlH IC50” value (Mouse pharmacokinetics)?
**A.** over 300 fold

**Q.** And the urine concentration achieved (Mouse pharmacokinetics; high urine concentration quoted in the conclusion)?
**A.** 61 µM

**Q.** With CC(=O)N[C@H]1[C@H](Oc2cccc(C(F)(F)F)c2-c2cccc(NS(C)(=O)=O)c2)O[C@H](CO)[C@H](O)[C@@H]1O [I] as the molecule, how does the “oral bioavailability (F)” value [2] read?
**A.** < 1%

**Q.** And the metabolic stability ([3]; SGF, SIF, mouse liver microsomes, blood plasma)?
**A.** good metabolic stability

**Q.** What about the “stability in plasma and simulated gut and intestinal fluids” value [3] of the same molecule?
**A.** good stability
